{"source": "patent US7807676B2", "about": "“Diketo-Piperazine and Piperidine derivatives as antiviral agents” (priority 2006, dated 2010)", "note": "pEC50: −log10 of the molar value. Counter-ions that a name gives are not always drawn.", "data": [{"test_system": "HIV-1 single-round infectious reporter virus", "assay": "Single-round infectious HIV-1 luciferase reporter virus infection of HeLa CD4 cells (antiviral EC50)", "format": "cell-based", "conditions": "Human immunodeficiency virus 1, HeLa, read-out: EC50 Group from Table 3", "outline": "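Compound (≤10 μM final, 10 concentrations) was added to HeLa CD4 cells together with luciferase-reporter HIV-1 pseudovirus (nef replaced by luciferase, envelope supplied in trans) at MOI ~0.01. Cells were lysed 72 h post-infection at 37 °C for luminescence; percent inhibition versus untreated infection, fitted four-parameter logistic for EC50.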", "values": [{"compound": "O=C(C(=O)N1CCN(c2ccnnc2-c2ccccc2)CC1)c1c[nH]c2c(-n3ccnn3)ncc(F)c12", "note": "[G-15a]", "pEC50": "> 6.30"}, {"compound": "O=C(C(=O)N1CCN(c2ccc(-c3ccccc3)cc2)CC1)c1c[nH]c2c(-n3ccnn3)ncc(F)c12", "note": "[A-2]", "pEC50": "< 6.30"}, {"compound": "N#Cc1cccnc1N1CCN(C(=O)C(=O)c2c[nH]c3c(-n4ccnn4)ncc(F)c23)CC1", "note": "[D-4]", "pEC50": "> 6.30"}, {"compound": "COc1cnc(-c2ccc(N3CCN(C(=O)OC(C)C)CC3)cc2)c2[nH]cc(C(=O)C(=O)N3CCN(c4nnnn4-c4ccccn4)CC3)c12", "note": "[B-83]", "pEC50": "> 6.30"}, {"compound": "COc1cnc(-n2cnc(C)n2)c2[nH]cc(C(=O)C(=O)N3CCN(c4ncccc4C(=O)NCc4ccccc4)CC3)c12", "note": "[D-16]", "pEC50": "< 6.30"}, {"compound": "COc1ccncc1-c1ncc(OC)c2c(C(=O)C(=O)N3CCN(c4nnnn4-c4ccccn4)CC3)c[nH]c12", "note": "[H-6]", "pEC50": "> 6.30"}, {"compound": "CN(C)c1cc(N2CCN(C(=O)C(=O)c3c[nH]c4c(-n5ccnn5)ncc(F)c34)CC2)c(-c2ccccc2)nn1", "note": "[G-14a]", "pEC50": "> 6.30"}, {"compound": "COc1cnc(-c2cc(C(=O)NCCCN3CCN(C)CC3)[nH]n2)c2[nH]cc(C(=O)C(=O)N3CCN(c4nnnn4-c4ccccc4)CC3)c12", "note": "[B-10, 3-(4-methoxy-3-(2-oxo-2-(4-(1-phenyl-1H-tetrazol-5-yl)piperazin-1-yl)acetyl)-1H-pyrrolo[2,3-c]pyridin-7-yl)-N-(3-(4-methylpiperazin-1-yl)propyl)-1H-pyrazole-5-carboxamide.TFA]", "pEC50": "> 6.30"}, {"compound": "CCOC(=O)c1cc(-c2ncc(F)c3c(C(=O)C(=O)N4CCN(c5nnnn5-c5ccccc5)CC4)cn(C)c23)nn1C", "note": "[B-60]", "pEC50": "> 6.30"}, {"compound": "COc1cnc(-c2cc(C(=O)NCCN3CCNCC3)[nH]n2)c2[nH]cc(C(=O)C(=O)N3CCN(c4nnnn4-c4ccccc4)CC3)c12", "note": "[B-14, 3-(4-methoxy-3-(2-oxo-2-(4-(1-phenyl-1H-tetrazol-5-yl)piperazin-1-yl)acetyl)-1H-pyrrolo[2,3-c]pyridin-7-yl)-N-(2-(piperazin-1-yl)ethyl)-1H-pyrazole-5-carboxamide.TFA]", "pEC50": "> 6.30"}, {"compound": "O=C(C(=O)N1CCN(c2ncccc2C(F)(F)F)CC1)c1c[nH]c2c(-n3ccnn3)ncc(F)c12", "note": "[A-51]", "pEC50": "> 6.30"}, {"compound": "COc1cnc(-n2cnc(C)n2)c2[nH]cc(C(=O)C(=O)N3CCN(c4nccn4-c4ccccc4)CC3)c12", "note": "[A-54]", "pEC50": "> 6.30"}, {"compound": "COc1cnc(-n2cnc(C)n2)c2[nH]cc(C(=O)C(=O)N3CCN(c4ccnn4-c4ccccn4)CC3)c12", "note": "[E-15, 1-(4-methoxy-7-(3-methyl-1H-1,2,4-triazol-1-yl)-1H-pyrrolo[2,3-c]pyridinyl-3-yl)-2-(4-(1-(pyridin-2-yl)-1H-pyrazol-5-yl)piperazin-1-yl)ethane-1,2-dione]", "pEC50": "> 6.30"}, {"compound": "N#Cc1cccc(-n2nnnc2N2CCN(C(=O)C(=O)c3c[nH]c4c(-n5ccnn5)ncc(F)c34)CC2)c1", "note": "[E-11]", "pEC50": "< 6.30"}, {"compound": "O=C(C(=O)N1CCN([C@H]2CCCC[C@H]2c2ccccc2)CC1)c1c[nH]c2c(-n3ccnn3)ncc(F)c12", "note": "[A-19]", "pEC50": "> 6.30"}, {"compound": "COc1cnc(-n2cnc(C)n2)c2[nH]cc(C(=O)C(=O)N3CCN(c4nc(SC)nn4-c4ccccc4)CC3)c12", "note": "[G-26b]", "pEC50": "> 6.30"}, {"compound": "COc1cnc(-c2cc(CO)[nH]n2)c2[nH]cc(C(=O)C(=O)N3CCN(c4nnnn4-c4ccccc4)CC3)c12", "note": "[B-22, 1-(7-(5-(hydroxymethyl)-1H-pyrazol-3-yl)-4-methoxy-1H-pyrrolo[2,3-c]pyridin-3-yl)-2-(4-(1-phenyl-1H-tetrazol-5-yl)piperazin-1-yl)ethane-1,2-dione]", "pEC50": "> 6.30"}, {"compound": "COc1ccc(-n2nnnc2N2CCN(C(=O)C(=O)c3c[nH]c4c(-n5ccnn5)ncc(F)c34)CC2)cc1", "note": "[E-10]", "pEC50": "< 6.30"}, {"compound": "N#Cc1ccc(-n2nnnc2N2CCN(C(=O)C(=O)c3c[nH]c4c(-n5ccnn5)ncc(F)c34)CC2)cc1", "note": "[E-12]", "pEC50": "< 6.30"}, {"compound": "COc1cnc(-c2ccc(N3CCN(C(=O)OC(C)(C)C)CC3)cc2)c2[nH]cc(C(=O)C(=O)N3CCN(c4nnnn4-c4ccccn4)CC3)c12", "note": "[B-81]", "pEC50": "> 6.30"}]}]}
